According to PubChem BioAssay (NCI):
Values joined by “and” are separate entries in the source; they are usually repeats but may differ in a detail not shown here. Equal values may be shown once.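 1) Cells in 96-well plates. 2) Compound, 48 h, 5 concentrations. 3) Linear interpolation between surrounding doses. 4) Unreached endpoint = highest concentration. Abbreviation: GI50, concentration required for 50% inhibition of growth. TGI: concentration producing complete growth inhibition.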

Tests used:
Experiment in all cases: NCI anticancer screen, dose series, 48 h
ACHN renal = tested on: ACHN renal
MOLT-4 leukemia = tested on: MOLT-4 leukemia
SW-620 colon = tested on: SW-620 colon
OVCAR-8 ovarian = tested on: OVCAR-8 ovarian
RXF 393 renal = tested on: RXF 393 renal
SNB-75 CNS = tested on: SNB-75 CNS
UO-31 renal = tested on: UO-31 renal
MDA-N = tested on: MDA-N
A498 renal = tested on: A498 renal
PC-3 prostate = tested on: PC-3 prostate
MDA-MB-231 breast = tested on: MDA-MB-231 breast
HOP-92 NSCLC = tested on: HOP-92 NSCLC
DMS 273 small cell lung = tested on: DMS 273 small cell lung
DLD-1 colon = tested on: DLD-1 colon
TK-10 renal = tested on: TK-10 renal
NCI-H460 lung = tested on: NCI-H460 lung
NCI/ADR-RES ovarian = tested on: NCI/ADR-RES ovarian
SF-268 CNS = tested on: SF-268 CNS
MDA-MB-435 = tested on: MDA-MB-435
DMS 114 small cell lung = tested on: DMS 114 small cell lung
SN12C renal = tested on: SN12C renal
NCI-H23 lung = tested on: NCI-H23 lung
HCT-15 colon = tested on: HCT-15 colon
IGROV1 ovarian = tested on: IGROV1 ovarian
T-47D breast = tested on: T-47D breast
SNB-19 CNS = tested on: SNB-19 CNS
XF 498 CNS = tested on: XF 498 CNS
SK-MEL-2 melanoma = tested on: SK-MEL-2 melanoma
LOX IMVI melanoma = tested on: LOX IMVI melanoma
EKVX NSCLC = tested on: EKVX NSCLC
HCC-2998 colon = tested on: HCC-2998 colon
KM20L2 colon = tested on: KM20L2 colon
CCRF-CEM leukemia = tested on: CCRF-CEM leukemia
SK-OV-3 ovarian = tested on: SK-OV-3 ovarian
HS 578T breast = tested on: HS 578T breast
HOP-62 NSCLC = tested on: HOP-62 NSCLC
U251 CNS = tested on: U251 CNS
M14 melanoma = tested on: M14 melanoma
786-0 renal = tested on: 786-0 renal
OVCAR-3 ovarian = tested on: OVCAR-3 ovarian
OVCAR-5 ovarian = tested on: OVCAR-5 ovarian
UACC-62 melanoma = tested on: UACC-62 melanoma
SF-295 CNS = tested on: SF-295 CNS
UACC-257 melanoma = tested on: UACC-257 melanoma
COLO 205 colon = tested on: COLO 205 colon
SF-539 CNS = tested on: SF-539 CNS
SR leukemia = tested on: SR leukemia
NCI-H226 lung = tested on: NCI-H226 lung
MCF7 breast = tested on: MCF7 breast
BT-549 breast = tested on: BT-549 breast
K-562 leukemia = tested on: K-562 leukemia
HT29 colon = tested on: HT29 colon
NCI-H522 lung = tested on: NCI-H522 lung
RPMI-8226 leukemia = tested on: RPMI-8226 leukemia
HCT-116 colon = tested on: HCT-116 colon
OVCAR-4 ovarian = tested on: OVCAR-4 ovarian
SK-MEL-5 melanoma = tested on: SK-MEL-5 melanoma
HL-60(TB) leukemia = tested on: HL-60(TB) leukemia
DU-145 prostate = tested on: DU-145 prostate
LXFL 529 NSCLC = tested on: LXFL 529 NSCLC
A549 NSCLC = tested on: A549 NSCLC
MALME-3M melanoma = tested on: MALME-3M melanoma
SK-MEL-28 melanoma = tested on: SK-MEL-28 melanoma

## CC(C)(C)c1cc(C=C(C#N)C#N)cc(C(C)(C)C)c1O
ACHN renal
  TGI: 20.2 µM
MOLT-4 leukemia
  TGI: 10.6 µM
SW-620 colon
  GI50: 462 nM
  TGI: 30.9 µM and 45.4 µM
OVCAR-8 ovarian
  GI50: 355 nM
  TGI: 23.6 µM and 48.1 µM
RXF 393 renal
  GI50: 482 nM
  TGI: 14.3 µM and 10.5 µM
SNB-75 CNS
  GI50: 194 nM
UO-31 renal
  TGI: 891 nM and 3700 nM
MDA-N
  GI50: 346 nM
  TGI: 56.7 µM
A498 renal
  GI50: 158 nM
  TGI: 3830 nM and 1760 nM
PC-3 prostate
  GI50: 35.4 nM
  TGI: 3.36 µM and 4.17 µM
MDA-MB-231 breast
  GI50: 92.3 nM
  TGI: 675 nM
HOP-92 NSCLC
  GI50: 212 nM
  TGI: 768 nM and 139 nM
DMS 273 small cell lung
  TGI: 5.51 µM
DLD-1 colon
  TGI: 42.7 µM
TK-10 renal
  GI50: 336 nM
NCI-H460 lung
  GI50: 305 nM
  TGI: 21.9 µM
NCI/ADR-RES ovarian
  GI50: 62.9 nM
  TGI: 15.1 µM and 41.5 µM
SF-268 CNS
  GI50: 475 nM
  TGI: > 241 µM
MDA-MB-435
  GI50: 252 nM
  TGI: 29.9 µM and 12.4 µM
DMS 114 small cell lung
  TGI: 7.3 µM
SN12C renal
  GI50: 513 nM
  TGI: 4.6 µM
NCI-H23 lung
  GI50: 194 nM
HCT-15 colon
  TGI: 14.1 µM and 19.9 µM
IGROV1 ovarian
  GI50: 493 nM
  TGI: > 247 µM
T-47D breast
  GI50: 67.9 nM
  TGI: 645 nM and 5070 nM
SNB-19 CNS
  GI50: 271 nM
  TGI: 115 µM
XF 498 CNS
  TGI: 3.13 µM
SK-MEL-2 melanoma
  TGI: 1390 nM
LOX IMVI melanoma
  GI50: 375 nM
  TGI: 3.92 µM and 10.8 µM
EKVX NSCLC
  GI50: 518 nM and 825 nM
  TGI: 46.3 µM
HCC-2998 colon
  TGI: 18.4 µM
KM20L2 colon
  TGI: 73.2 µM
CCRF-CEM leukemia
  GI50: 609 nM
SK-OV-3 ovarian
  GI50: 229 nM and 302 nM
HS 578T breast
  GI50: 133 nM
  TGI: 22.7 µM and 4.49 µM
HOP-62 NSCLC
  TGI: 6.87 µM and 1.65 µM
U251 CNS
  GI50: 359 nM
  TGI: 23.1 µM and 11.5 µM
M14 melanoma
  GI50: 533 nM
  TGI: 12.1 µM and 10.7 µM
786-0 renal
  GI50: 393 nM
  TGI: 10.9 µM and 16.4 µM
OVCAR-3 ovarian
  GI50: 456 nM
  TGI: 29.2 µM and 3.85 µM
OVCAR-5 ovarian
  GI50: 402 nM
UACC-62 melanoma
  TGI: 8.29 µM and 19.3 µM
SF-295 CNS
  GI50: 284 nM
  TGI: 1230 nM and 3400 nM
UACC-257 melanoma
  TGI: 898 nM and 3270 nM
COLO 205 colon
  GI50: 363 nM and 191 nM
  TGI: 369 nM
SF-539 CNS
  GI50: 376 nM
  TGI: 10.2 µM and 3.24 µM
SR leukemia
  GI50: 318 nM
  TGI: 12.6 µM and 11 µM
NCI-H226 lung
  GI50: 371 nM
  TGI: 1.51 µM and 14.8 µM
MCF7 breast
  TGI: 41 µM
BT-549 breast
  GI50: 141 nM
  TGI: 0.875 µM and 6.78 µM
K-562 leukemia
  TGI: > 354 µM
HT29 colon
  GI50: 330 nM
  TGI: 7.81 µM and 10.6 µM
NCI-H522 lung
  GI50: 219 nM
  TGI: 2860 nM and 1610 nM
RPMI-8226 leukemia
  GI50: 101 nM and 87.7 nM
HCT-116 colon
  TGI: 1030 nM and 3810 nM
OVCAR-4 ovarian
  GI50: 523 nM
  TGI: > 354 µM
SK-MEL-5 melanoma
  GI50: 298 nM
  TGI: 3.07 µM
HL-60(TB) leukemia
  TGI: 2480 nM
DU-145 prostate
  GI50: 89.4 nM
  TGI: 18.5 µM and 56.8 µM
LXFL 529 NSCLC
  TGI: 6.59 µM
A549 NSCLC
  TGI: 24.3 µM and 71.4 µM
MALME-3M melanoma
  GI50: 507 nM
  TGI: 15.4 µM and 8.08 µM
SK-MEL-28 melanoma
  GI50: 778 nM
  TGI: 43.6 µM
